According to patent US20160313301A1, “METHOD FOR PREDICTING ANTITUMOR EFFICACY OF HSP90 INHIBITOR IN CANCER TREATMENT” (NIPPON KAYAKU KABUSHIKI KAISHA, priority 2013, published 2016):

Legend:
Type in all cases: in vivo
[1] = tested on: human breast cancer cells MC-19-JCK; assay: Anti-tumor test in mice transplanted subcutaneously with tumor (MC-19-JCK); conditions: MC-19-JCK s.c. in mice; administered once at 40 mg/kg
Procedure: (§1) Human ovarian cancer cell lines OC-10-JCK, OC-11-JCK, and TOGY-18, and a human breast cancer cell line MC-19-JCK were obtained from Central Institute for Experimental Animals. Cryopreserved tumor pieces were thawed, and then OC-10-JCK, OC-11-JCK, and MC-19-JCK were transplanted subcutaneously to SCID mice, while TOGY-18 was transplanted subcutaneously to nude mice. After the tumors were grown, the tumors were removed and cut into tumor pieces. The tumor pieces were transplanted subcutaneously to SCID mice or nude mice with trocars. The tumors were maintained by repeated transplantation in the same manner as described above to prepare tumors to be transplanted. Human ovarian cancer cell lines ES-2, SK-OV-3, OV-90, and TOV-21G, and a human lung cancer cell line NCI-H1975 were obtained from American Type Culture Collection (ATCC). The SK-OV-3 and NCI-H1975 cell lines were grown in recommended culture media, of which about 1×10^7 cells were suspended into HBSS and then injected subcutaneously to SCID mice. After the cells formed tumors, the tumors were removed and cut into tumor pieces. The tumor pieces were transplanted subcutaneously to SCID mice with trocars. The tumors were maintained by repeated transplantation in the same manner as described above to prepare tumors to be transplanted. […]

[2] = tested on: human ovarian cancer cells TOV-21G; assay: Anti-tumor test in mice transplanted subcutaneously with tumor (TOV-21G); conditions: TOV-21G s.c. in mice
Procedure: as §1

[3] = tested on: human ovarian cancer cells OC-11-JCK; assay: Anti-tumor test in mice transplanted subcutaneously with tumor (OC-11-JCK); conditions: OC-11-JCK s.c. in mice; 40 mg/kg tail vein three times at 4 day intervals
Procedure: as §1

[4] = tested on: human lung cancer cells NCI-H1975; assay: Anti-tumor test in mice transplanted subcutaneously with tumor (NCI-H1975); conditions: NCI-H1975 s.c. in mice; 40 mg/kg three times at 7 day intervals
Procedure: as §1

[5] = tested on: human ovarian cancer cells 2008; assay: Anti-tumor test in mice transplanted subcutaneously with tumor (2008); conditions: 2008 s.c. in mice
Procedure: as §1

[6] = 40 mg/kg tail vein three times at 4 day intervals

CC(C)c1cc(-c2n[nH]c(=O)n2-c2ccc(CN3CCN(C)CC3)cc2)c(O)cc1O [A-1, 5-(2,4-dihydroxy-5-isopropyl-phenyl)-4-[4-(4-methyl-piperazin-1-ylmethyl)-phenyl]-2,4-dihydro-[1,2,4]triazol-3-one]
T/C % (lowest value from the beginning to the 21st day of administration) [1]: 5.2%
anti-tumor effect (in words) [2]: relatively highly effective
T/C % (lowest value from the beginning to the 21st day of administration) [2, 6]: 25.0%
T/C % (lowest value from the beginning to the 21st day of administration) [3]: 36.0%
T/C % (lowest value from the beginning to the 21st day of administration) [4]: 49.4%
anti-tumor effect (in words) [5]: lowly effective
T/C % (lowest value from the beginning to the 21st day of administration) [5, 6]: 51.7%
